Key:
Assay type in all cases: in vivo
[1] = tested on: Japanese bulrush (Scirpus juncoides Roxb.); test: Test Example 1: herbicidal effect by soil application to paddy field; details: paddy field soil application; active ingredient 1,000 g per 1 hectare; wettable powder added dropwise to water surface the day after sowing; examined on the 21st day after application
How it was run: (§1)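 Plants were sown in flooded (3 cm) paddy soil and evaluated for herbicidal effect 21 days after soil application in a greenhouse.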

[2] = tested on: early watergrass (Echinochloa oryzicola Vasing); test: as above; details: paddy field soil application; active ingredient 1,000 g per 1 hectare; wettable powder added dropwise to water surface the day after sowing; examined on the 21st day after application
How it was run: as §1

[3] = tested on: heartshape false pickerelweed (Monochoria vaginalis (Burm.f.) C.Presl); test: as above; details: paddy field soil application; active ingredient 1,000 g per 1 hectare; wettable powder added dropwise to water surface the day after sowing; examined on the 21st day after application
How it was run: as §1

[4] = tested on: barnyardgrass (Echinochloa crus-galli (L.) P. Beauv. var. crus-galli); test: Test Example 2: herbicidal effect by soil application to upland field; details: soil surface spray, upland field soil, 1,000 g active ingredient per hectare, 21st day after application
How it was run: (§2)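 In this soil-application test, sown and soil-covered pots are sprayed uniformly with the formulation diluted in water, giving 1,000 g of active ingredient per ha in a volume of 1,000 L per ha. Plants then grow in a greenhouse for 21 days before herbicidal scoring by a standard scale.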

[5] = tested on: green foxtail (Setaria viridis (L.) P. Beauv.); test: as above; details: soil surface spray, upland field soil, 1,000 g active ingredient per hectare, 21st day after application
How it was run: as §2

[6] = tested on: slender amaranth (Amaranthus viridis L.); test: as above; details: soil surface spray, upland field soil, 1,000 g active ingredient per hectare, 21st day after application
How it was run: as §2

[7] = tested on: velvetleaf (Abutilon theophrasti medicus); test: as above; details: soil surface spray, upland field soil, 1,000 g active ingredient per hectare, 21st day after application
How it was run: as §2

[8] = tested on: barnyardgrass (Echinochloa crus-galli (L.) P. Beauv. var. crus-galli); test: Test Example 3: herbicidal effect by application to upland field (foliage treatment); details: foliage treatment, 1,000 g active ingredient per 1 hectare, 14th day after application, greenhouse
How it was run: (§3)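 Post-emergence spray at 1,000 g AI/ha of wettable powder in water (1,000 L/ha), onto seedlings grown 2 weeks in greenhouse field-soil pots. Graded day 14.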

[9] = tested on: green foxtail (Setaria viridis (L.) P. Beauv.); test: as above; details: foliage treatment, 1,000 g active ingredient per 1 hectare, 14th day after application, greenhouse
How it was run: as §3

[10] = tested on: slender amaranth (Amaranthus viridis L.); test: as above; details: foliage treatment, 1,000 g active ingredient per 1 hectare, 14th day after application, greenhouse
How it was run: as §3

[11] = tested on: velvetleaf (Abutilon theophrasti medicus); test: as above; details: foliage treatment, 1,000 g active ingredient per 1 hectare, 14th day after application, greenhouse
How it was run: as §3

Compound	herbicidal effect, Scirpus juncoides Roxb. [1]	herbicidal effect, Echinochloa oryzicola Vasing [2]	herbicidal effect, Monochoria vaginalis (Burm. f.) C. Presl [3]	herbicidal effect (index), Barnyardgrass [4]	herbicidal effect (index), Green Foxtail [5]	herbicidal effect (index), Slender Amaranth [6]	herbicidal effect (index), Velvetleaf [7]	herbicidal effect, Barnyardgrass [8]	herbicidal effect, Green Foxtail [9]	herbicidal effect, Slender Amaranth [10]	herbicidal effect, Velvetleaf [11]
CCN(C)n1c(C(F)(F)F)ccc(C(=O)C2=C(O)CCCC2=O)c1=O [I-175]	5 (90% or more of herbicidal effect and crop phytotoxicity)	5 (90% or more of herbicidal effect and crop phytotoxicity)	5 (90% or more of herbicidal effect and crop phytotoxicity)	5 (90% or more of herbicidal effect and crop phytotoxicity)	5 (90% or more of herbicidal effect and crop phytotoxicity)	5 (90% or more of herbicidal effect and crop phytotoxicity)	5 (90% or more of herbicidal effect and crop phytotoxicity)	5 (90% or more of herbicidal effect and crop phytotoxicity)	4 (70 to less than 90% of herbicidal effect and crop phytotoxicity)	5 (90% or more of herbicidal effect and crop phytotoxicity)	5 (90% or more of herbicidal effect and crop phytotoxicity)
O=C1CCCC(O)=C1C(=O)c1ccc(C(F)(F)F)n(N2CCCC2)c1=O [I-177]	5 (90% or more of herbicidal effect and crop phytotoxicity)	5 (90% or more of herbicidal effect and crop phytotoxicity)	5 (90% or more of herbicidal effect and crop phytotoxicity)	5 (90% or more of herbicidal effect and crop phytotoxicity)	5 (90% or more of herbicidal effect and crop phytotoxicity)	5 (90% or more of herbicidal effect and crop phytotoxicity)	5 (90% or more of herbicidal effect and crop phytotoxicity)	5 (90% or more of herbicidal effect and crop phytotoxicity)	4 (70 to less than 90% of herbicidal effect and crop phytotoxicity)	5 (90% or more of herbicidal effect and crop phytotoxicity)	5 (90% or more of herbicidal effect and crop phytotoxicity)
O=C1CCCC(O)=C1C(=O)c1ccc(C(F)(F)F)n(N2CCOCC2)c1=O [I-178]	5 (90% or more of herbicidal effect and crop phytotoxicity)	5 (90% or more of herbicidal effect and crop phytotoxicity)	5 (90% or more of herbicidal effect and crop phytotoxicity)	5 (90% or more of herbicidal effect and crop phytotoxicity)	5 (90% or more of herbicidal effect and crop phytotoxicity)	5 (90% or more of herbicidal effect and crop phytotoxicity)	5 (90% or more of herbicidal effect and crop phytotoxicity)	5 (90% or more of herbicidal effect and crop phytotoxicity)	5 (90% or more of herbicidal effect and crop phytotoxicity)	5 (90% or more of herbicidal effect and crop phytotoxicity)	5 (90% or more of herbicidal effect and crop phytotoxicity)
CN(C)C=Nn1c(C(F)(F)F)ccc(C(=O)C2=C(O)CCCC2=O)c1=O [I-186]	5 (90% or more of herbicidal effect and crop phytotoxicity)	5 (90% or more of herbicidal effect and crop phytotoxicity)	5 (90% or more of herbicidal effect and crop phytotoxicity)	5 (90% or more of herbicidal effect and crop phytotoxicity)	5 (90% or more of herbicidal effect and crop phytotoxicity)	5 (90% or more of herbicidal effect and crop phytotoxicity)	5 (90% or more of herbicidal effect and crop phytotoxicity)	5 (90% or more of herbicidal effect and crop phytotoxicity)	5 (90% or more of herbicidal effect and crop phytotoxicity)	5 (90% or more of herbicidal effect and crop phytotoxicity)	5 (90% or more of herbicidal effect and crop phytotoxicity)
COC(=O)N(C)n1c(C(F)(F)F)ccc(C(=O)C2=C(O)CCCC2=O)c1=O [I-190]	5 (90% or more of herbicidal effect and crop phytotoxicity)	5 (90% or more of herbicidal effect and crop phytotoxicity)	5 (90% or more of herbicidal effect and crop phytotoxicity)	5 (90% or more of herbicidal effect and crop phytotoxicity)	4 (70 to less than 90% of herbicidal effect and crop phytotoxicity)	5 (90% or more of herbicidal effect and crop phytotoxicity)	5 (90% or more of herbicidal effect and crop phytotoxicity)	5 (90% or more of herbicidal effect and crop phytotoxicity)	5 (90% or more of herbicidal effect and crop phytotoxicity)	5 (90% or more of herbicidal effect and crop phytotoxicity)	5 (90% or more of herbicidal effect and crop phytotoxicity)
CCN(C(=O)OC)n1c(C(F)(F)F)ccc(C(=O)C2=C(O)CCCC2=O)c1=O [I-191]	5 (90% or more of herbicidal effect and crop phytotoxicity)	5 (90% or more of herbicidal effect and crop phytotoxicity)	5 (90% or more of herbicidal effect and crop phytotoxicity)	5 (90% or more of herbicidal effect and crop phytotoxicity)	5 (90% or more of herbicidal effect and crop phytotoxicity)	5 (90% or more of herbicidal effect and crop phytotoxicity)	5 (90% or more of herbicidal effect and crop phytotoxicity)	5 (90% or more of herbicidal effect and crop phytotoxicity)	5 (90% or more of herbicidal effect and crop phytotoxicity)	5 (90% or more of herbicidal effect and crop phytotoxicity)	5 (90% or more of herbicidal effect and crop phytotoxicity)
CCCn1c(C(F)(F)F)c(C)cc(C(=O)C2=C(O)CCCC2=O)c1=O [I-215]	5 (90% or more of herbicidal effect and crop phytotoxicity)	5 (90% or more of herbicidal effect and crop phytotoxicity)	5 (90% or more of herbicidal effect and crop phytotoxicity)	5 (90% or more of herbicidal effect and crop phytotoxicity)	5 (90% or more of herbicidal effect and crop phytotoxicity)	5 (90% or more of herbicidal effect and crop phytotoxicity)	5 (90% or more of herbicidal effect and crop phytotoxicity)	5 (90% or more of herbicidal effect and crop phytotoxicity)	5 (90% or more of herbicidal effect and crop phytotoxicity)	5 (90% or more of herbicidal effect and crop phytotoxicity)	5 (90% or more of herbicidal effect and crop phytotoxicity)
Cn1c(C(F)F)ccc(C(=O)C2=C(O)CCCC2=O)c1=O [I-221]	5 (90% or more of herbicidal effect and crop phytotoxicity)	5 (90% or more of herbicidal effect and crop phytotoxicity)	5 (90% or more of herbicidal effect and crop phytotoxicity)	5 (90% or more of herbicidal effect and crop phytotoxicity)	3 (50 to less than 70% of herbicidal effect and crop phytotoxicity)	5 (90% or more of herbicidal effect and crop phytotoxicity)	5 (90% or more of herbicidal effect and crop phytotoxicity)	5 (90% or more of herbicidal effect and crop phytotoxicity)	4 (70 to less than 90% of herbicidal effect and crop phytotoxicity)	5 (90% or more of herbicidal effect and crop phytotoxicity)	5 (90% or more of herbicidal effect and crop phytotoxicity)
